Measured values published in patent US20260109732A1, “LIPID AMINES” (ModernaTX, Inc., priority 2021, published 2026).

Assays:
[1] = Encapsulation of mRNA nanoparticles with lipid amines using Ribogreen assay; assay type: physicochemical
Outline: (§1)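 Ionizable lipid nanoparticles (IL1:DSPC:cholesterol:PEG-DMG-2K) formed by vortex mixing at pH 4, loaded with luciferase or CFTR mRNA at N:P 4.93, neutralized with TRIS pH 8.12, then modified with lipid amine SA50 at pH 7.5. Particle diameter and PDI read by DLS; mRNA encapsulation by Ribogreen assay.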

[2] = Diameter and PDI from DLS measurements of mRNA nanoparticles with lipid amines; assay type: physicochemical
Outline: as §1

HeLa cells [3] = experiment: Luciferase Protein Expression Assay in HeLa Cells; assay type: cell-based, Human; settings: LNPs encapsulating Luciferase mRNA, 25 ng per well, N=4 wells; 5 h serum-free then 24 h; ONE-Glo
Outline: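 HeLa cells received LNPs carrying luciferase mRNA (25 ng per well) or PBS in serum-free MEM for 5 h, then complete MEM for a further 24 h. Luciferase then read by ONE-Glo luminescence after lysis and reported as average RLU of 4 replicate wells.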

HeLa cells [4] = experiment: CFTR Protein Expression Assay in HeLa Cells; assay type: cell-based, Human; settings: LNPs encapsulating CFTR mRNA, N=4 wells; 5 h serum-free then 24 h; immunofluorescence vs PBS control
Outline: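 HeLa cells dosed with CFTR mRNA LNPs (70 mM NaCl final buffer matrix) in serum-free MEM for 5 h, then complete MEM for 24 h. Fixed cells immunostained with anti-CFTR monoclonal and Alexa 488 secondary, imaged confocally; CFTR intensity per cell expressed as fold-change versus PBS buffer control, N=4 wells.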

[5] = CFTR mRNA nanoparticle with lipid amine
[6] = Luciferase mRNA nanoparticle modified with lipid amine

SMILES	% Encapsulation (Ribogreen) [1, 5] [%]	% Encapsulation (Ribogreen) [1, 6] [%]	Diameter (nm) [2, 5] [nm]	PDI [2, 5]	Diameter (nm) [2, 6] [nm]	PDI [2, 6]	Average Relative Light Units ± Standard Deviation (HeLa cells [3]) [Relative Light Units]	Average fold-change in CFTR signal intensity per cell compared to buffer control ± standard deviation (HeLa cells [4]) [fold-change]
CC(C)CCC[C@@H](C)[C@H]1CC[C@H]2[C@@H]3CC=C4C[C@@H](OC(=O)N(CCCCNCC5(CN)CC5)CC5(CN)CC5)CC[C@]4(C)[C@H]3CC[C@]12C.Cl.Cl.Cl [SA128, (3S,8S,9S,10R,13R,14S,17R)-10,13-dimethyl-17-((R)-6-methylheptan-2-yl)-2,3,4,7,8,9,10,11,12,13,14,15,16,17-tetradecahydro-1H-cyclopenta[a]phenanthren-3-yl ((1-(aminomethyl)cyclopropyl)methyl)(4-(((1-(aminomethyl)cyclopropyl)methyl)amino)butyl)carbamate trihydrochloride]	99.4	99.4	74.5	0.13	75	0.16	39386.4 ± 5261.4	19.9 ± 0.4
CC(C)CCC[C@@H](C)[C@H]1CC[C@H]2[C@@H]3CC=C4C[C@@H](OC(=O)CN(CCCCCCCCN)C(=O)[C@@H](N)CCCN)CC[C@]4(C)[C@H]3CC[C@]12C.Cl.Cl.Cl [SA129, (3S,8S,9S,10R,13R,14S,17R)-10,13-dimethyl-17-((R)-6-methylheptan-2-yl)-2,3,4,7,8,9,10,11,12,13,14,15,16,17-tetradecahydro-1H-cyclopenta[a]phenanthren-3-yl N-(8-aminooctyl)-N-((S)-2,5-diaminopentanoyl)glycinate trihydrochloride]	96.2	99.5	81.6	0.12	70	0.16	144.8 ± 21.6	1.0 ± 0
CC(C)CCC[C@@H](C)[C@H]1CC[C@H]2[C@@H]3CC=C4C[C@@H](OC(=O)[C@H](CCCCN)NCCCCCCN)CC[C@]4(C)[C@H]3CC[C@]12C.Cl.Cl.Cl [SA131, (3S,8S,9S,10R,13R,14S,17R)-10,13-dimethyl-17-((R)-6-methylheptan-2-yl)-2,3,4,7,8,9,10,11,12,13,14,15,16,17-tetradecahydro-1H-cyclopenta[a]phenanthren-3-yl (6-aminohexyl)-L-lysinate trihydrochloride]	98.6	99.6	83.8	0.14	72	0.12	40915.5 ± 4983.3	10.8 ± 0.5
CC(C)CCC[C@@H](C)[C@H]1CC[C@H]2[C@@H]3CC=C4C[C@@H](OC(=O)[C@H](CCCN)NCCCCCCN)CC[C@]4(C)[C@H]3CC[C@]12C.Cl.Cl.Cl [SA132, (3S,8S,9S,10R,13R,14S,17R)-10,13-dimethyl-17-((R)-6-methylheptan-2-yl)-2,3,4,7,8,9,10,11,12,13,14,15,16,17-tetradecahydro-1H-cyclopenta[a]phenanthren-3-yl (S)-5-amino-2-((6-aminohexyl)amino)pentanoate trihydrochloride]	96.8	99.3	84.2	0.15	81	0.41	131.6 ± 15.5	1.6 ± 0.1
